Measurements: patent publication US20260184663A1, “INDENE COMPOUNDS, PHARMACEUTICAL COMPOSITIONS THEREOF, AND THEIR THERAPEUTIC APPLICATIONS” (NucMito Pharmaceuticals co. Ltd., priority 2022, published 2026)

Legend:
Format in all cases: cell-based
[1] = system: alpha-smooth muscle actin (α-SMA); assay: Inhibition of TGF-β induced expression of alpha-smooth muscle actin (α-SMA) in CFSC cells (western blot); conditions: compound at 10 μM, TGF-β (10 ng/mL), 24 hours, band intensity vs TGF-β only
In short: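 CFSC hepatic stellate cells in serum-free DMEM treated 24 h at 37 °C with compound at 10 μM plus TGF-β (10 ng/mL). α-SMA measured by Western blot with β-actin, ECL detection, densitometry. Percent inhibition is decrease in band intensity versus TGF-β-only cells.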

[2] = system: MDA-MB-231 (breast cancer); assay: Antiproliferative activity (CCK-8 cell viability), MDA-MB-231; conditions: Homo sapiens, 72 h, read-out: Antiproliferative activity in cancerous cells, MDA-MB-231 (inhibition of cell growth); for inhibition at 3.3 µM: Compound concentration: 3.3 μM; for inhibition at 10 µM: Compound concentration: 10 μM
In short: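 MDA-MB-231 breast cancer cells, grown in DMEM with 10% FBS, were plated in 96-well plates at 2,000-5,000 cells/well. Once attached, they were exposed to compound and incubated at 37° C. for 72 h. Viability was then measured with CCK-8 (10 μL per well, 4 h at 37° C.) by absorbance at 450 nm, relative to DMSO vehicle wells.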

[3] = system: HepG2 (liver cancer); assay: Antiproliferative activity (CCK-8 cell viability), HepG2; conditions: Homo sapiens, 72 h, read-out: Antiproliferative activity in cancerous cells, HepG2 (inhibition of cell growth); for inhibition at 3.3 µM: Compound concentration: 3.3 μM; for inhibition at 10 µM: Compound concentration: 10 μM
In short: (§1)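 Cells grown in DMEM (HepG2, SW480), MEM (HeLa) or F-12K (A549), each with 10% FBS, then exposed to compound at 3.3, 10 or 30 μM for 72 h at 37 °C. CCK-8 absorbance at 450 nm; viability expressed as percent of DMSO-treated cells, graded as growth inhibition bands.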

[4] = system: SW480 (colon cancer); assay: Antiproliferative activity (CCK-8 cell viability), SW480; conditions: Homo sapiens, 72 h, read-out: Antiproliferative activity in cancerous cells, SW480 (inhibition of cell growth); for inhibition at 3.3 µM: Compound concentration: 3.3 μM; for inhibition at 10 µM: Compound concentration: 10 μM
In short: as §1

[5] = system: B16F10 (malignant melanoma); assay: Antiproliferative activity (CCK-8 cell viability), B16F10; conditions: Mus musculus, 72 h, read-out: Antiproliferative activity in cancerous cells, B16F10 (inhibition of cell growth); for inhibition at 3.3 µM: B16-F10, Compound concentration: 3.3 μM; for inhibition at 10 µM: B16-F10, Compound concentration: 10 μM
In short: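 B16F10 melanoma cells grown in DMEM with 10% FBS were plated in 96-well plates at 2,000-5,000 cells/well. After attachment they were exposed to compound in medium for 72 h at 37° C. CCK-8 solution (10 μL) was then added, and after 4 h at 37° C absorbance was read at 450 nm.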

[6] = system: A431 (epidermoid carcinoma); assay: Antiproliferative activity (CCK-8 cell viability), A431; conditions: Homo sapiens, 72 h, read-out: Antiproliferative activity in cancerous cells, A431 (inhibition of cell growth); for inhibition at 3.3 µM: A-431, Compound concentration: 3.3 μM; for inhibition at 10 µM: A-431, Compound concentration: 10 μM
In short: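 A431 epidermoid carcinoma cells grown in DMEM with 10% FBS were plated at 2,000-5,000 cells/well in 96-well plates. After attachment they were exposed to compound at 3.3 μM, 10 μM, or 30 μM for 72 h at 37° C. Viability was then assessed by CCK-8 against DMSO vehicle-treated wells.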

[7] = system: A549 (lung adenocarcinoma); assay: Antiproliferative activity (CCK-8 cell viability), A549; conditions: Homo sapiens, 72 h; for inhibition at 3.3 µM: Compound concentration: 3.3 μM; for inhibition at 3.3 µM / inhibition at 10 µM: read-out: Antiproliferative activity in cancerous cells, A549 (inhibition of cell growth); for inhibition at 10 µM: Compound concentration: 10 μM
In short: as §1

[8] = system: HeLa (cervical cancer); assay: Antiproliferative activity (CCK-8 cell viability), HeLa; conditions: Homo sapiens, 72 h, read-out: Antiproliferative activity in cancerous cells, HELA (inhibition of cell growth); for inhibition at 3.3 µM: Compound concentration: 3.3 μM; for inhibition at 10 µM: Compound concentration: 10 μM
In short: as §1

Structure (SMILES) | inhibition at 10 µM [1] [%] | inhibition at 3.3 µM [2] [%] | inhibition at 10 µM [2] [%] | inhibition at 3.3 µM [3] [%] | inhibition at 10 µM [3] [%] | inhibition at 3.3 µM [4] [%] | inhibition at 10 µM [4] [%] | inhibition at 3.3 µM [5] [%] | inhibition at 10 µM [5] [%] | inhibition at 3.3 µM [6] [%] | inhibition at 10 µM [6] [%] | inhibition at 3.3 µM [7] [%] | inhibition at 10 µM [7] [%] | inhibition at 3.3 µM [8] [%] | inhibition at 10 µM [8] [%] | inhibition at 30 µM ([7]; Compound concentration: 30 μM, read-out: Antiproliferative activity in cancerous cells, A549) [%]
CCC1=C(CC(=O)O)c2cc(F)ccc2/C1=C\c1cccc(Oc2ccccc2)c1 [C19, (Z)-2-(2-Ethyl-5-fluoro-1-(3-phenoxybenzylidene)-1H-inden-3-yl)acetic acid] | > 80 | ≥ 50 | ≥ 50 | < 30 | 30 to 50 | < 30 | < 30 | < 30 | ≥ 50 | < 30 | ≥ 50 | 30 to 50 | ≥ 50 | 30 to 50 | ≥ 50 | 
O=C(O)CC1=C(CC2CCCC2)/C(=C/c2cccc(Oc3ccccc3)c2)c2ccc(F)cc21 [C20, (Z)-2-(2-(Cyclopentylmethyl)-5-fluoro-1-(3-phenoxybenzylidene)-1H-inden-3-yl)acetic acid] | > 80 | 30 to 50 | ≥ 50 | < 30 | < 30 | ≥ 50 | ≥ 50 | ≥ 50 | ≥ 50 | ≥ 50 | ≥ 50 | 30 to 50 | ≥ 50 | 30 to 50 | ≥ 50 | 
CC1=C(CC(=O)O)c2c(F)cccc2/C1=C\c1cccc(Oc2ccccc2)c1 [C21, (Z)-2-(4-Fluoro-2-methyl-1-(3-phenoxybenzylidene)-1H-inden-3-yl)acetic acid] | < 30 | ≥ 50 | ≥ 50 | < 30 | 30 to 50 | < 30 | < 30 | < 30 | < 30 | < 30 | ≥ 50 | 30 to 50 | 30 to 50 | 30 to 50 | ≥ 50 | 
CCCC1=C(CC(=O)O)c2cc(F)ccc2/C1=C\c1cccc(Oc2ccccc2)c1 [C22, (Z)-2-(5-Fluoro-1-(3-phenoxybenzylidene)-2-propyl-1H-inden-3-yl)acetic acid] | > 80 | ≥ 50 | ≥ 50 | < 30 | ≥ 50 | < 30 | 30 to 50 | 30 to 50 | ≥ 50 | < 30 | ≥ 50 | ≥ 50 | ≥ 50 | < 30 | ≥ 50 | 
CC1=C(CC(=O)O)c2ccc(F)c(F)c2/C1=C\c1cccc(Oc2ccccc2)c1 [C23, (Z)-2-(6,7-Difluoro-2-methyl-1-(3-phenoxybenzylidene)-1H-inden-3-yl)acetic acid] | < 30 | ≥ 50 | ≥ 50 | < 30 | < 30 | < 30 | < 30 | 30 to 50 | ≥ 50 | < 30 | < 30 | < 30 | < 30 | 30 to 50 | ≥ 50 | 
C=CC1=C(CC(=O)O)c2ccccc2/C1=C\c1ccc(Oc2ccc(F)cc2)cc1 [C25, (Z)-2-(1-(4-(4-Fluorophenoxy)benzylidene)-2-vinyl-1H-inden-3-yl)acetic acid] | < 30 | ≥ 50 | ≥ 50 | < 30 | < 30 | 30 to 50 | 30 to 50 | ≥ 50 | ≥ 50 | < 30 | < 30 | < 30 | 30 to 50 | 30 to 50 | 30 to 50 | 30 to 50
CC1=C(Cc2noc(=O)[nH]2)c2cc(F)ccc2/C1=C\c1ccc(Oc2ccc(F)cc2)cc1 [C26, (Z)-3-((5-Fluoro-1-(4-(4-fluorophenoxy)benzylidene)-2-methyl-1H-inden-3-yl)-methyl)-1,2,4-oxadiazol-5(4H)-one] | > 80 | ≥ 50 | ≥ 50 | < 30 | ≥ 50 | < 30 | ≥ 50 | < 30 | ≥ 50 | < 30 | ≥ 50 | 30 to 50 | ≥ 50 | < 30 | ≥ 50 | 
COc1ccc2c(c1)/C(=C\c1ccc(Oc3ccc(F)cc3)cc1)C(Cc1ccccc1)=C2CC(=O)O [C27, (Z)-2-(2-Benzyl-1-(4-(4-fluorophenoxy)benzylidene)-6-methoxy-1H-inden-3-yl)-acetic acid] | > 80 | ≥ 50 | ≥ 50 | ≥ 50 | ≥ 50 | < 30 | ≥ 50 | 30 to 50 | ≥ 50 | < 30 | ≥ 50 | ≥ 50 | ≥ 50 | ≥ 50 | ≥ 50 | 
CC1=C(C(C)C(=O)O)c2ccccc2/C1=C\c1ccc(Oc2ccc(F)cc2)cc1 (stereo not shown) [C29, (Z)-2-(1-(4-(4-Fluorophenoxy)benzylidene)-2-methyl-1H-inden-3-yl)propanoic acid] | 50 to 80 | 30 to 50 | ≥ 50 | < 30 | ≥ 50 | 30 to 50 | 30 to 50 | 30 to 50 | ≥ 50 | < 30 | ≥ 50 | < 30 | 30 to 50 | ≥ 50 | ≥ 50 | 
CC1=C(Cc2noc(=O)[nH]2)c2cc(F)ccc2/C1=C\c1cccc(Oc2ccccc2)c1 [C32, (Z)-3-((5-Fluoro-2-methyl-1-(3-phenoxybenzylidene)-1H-inden-3-yl)methyl)-1,2,4-oxadiazol-5(4H)-one] | < 30 | ≥ 50 | ≥ 50 | < 30 | < 30 | < 30 | < 30 | < 30 | 30 to 50 | < 30 | < 30 | < 30 | < 30 | < 30 | 30 to 50 | 
